Columns and labels:
[1] = tested on: Chrysosporium keratinophilum; assay: agar plate disc-diffusion, antifungal inhibition zone; assay type: cell-based
Experimental: (§1) The agar plate disc-diffusion method was applied. […] The discs were then placed onto the surface of agar plates (nutrient agar for bacteria and Sabouraud's dextrose agar for fungi) seeded with the test organism. Each plate contained 15 mL of the agar medium, previously seeded with 0.2 mL of the broth culture of each organism pregrown for 18 hours. The plates were incubated at 37° C. for 48 h, and 72 h for fungi. The inhibition zones were measured in mm. Discs impregnated with DMSO were used as a control, and its inhibition zone was subtracted from the tested compound actual inhibition zone.

[2] = tested on: Aspergillus flavus; assay: as above; assay type: cell-based
Experimental: as §1

[3] = tested on: Bacillus Cereus; assay: agar plate disc-diffusion, antibacterial inhibition zone; assay type: cell-based
Experimental: as §1

[4] = tested on: Escherichia coli; assay: as above; assay type: cell-based
Experimental: as §1

[5] = tested on: Staphylococcus aureus; assay: as above; assay type: cell-based
Experimental: as §1

[6] = tested on: Pseudomonas aeruginosa; assay: as above; assay type: cell-based
Experimental: as §1

[7] = tested on: different microbes; assay: agar plate disc-diffusion, overall antimicrobial activity; assay type: cell-based; conditions: against different microbes (bacteria and fungi)
Experimental: The agar plate disc-diffusion method was applied. Sterilized filter papers (6 mm in diameter) were wetted with 10 μL of a solution of 5-((2-isopropyl-5-methylphenoxy)methyl)-3-(naphthalen-2-yl)-1,2,4-oxadiazole (3) to be tested, containing 10 mg/mL in DMSO, and the discs were allowed to air dry. The discs were then placed onto the surface of agar plates (nutrient agar for bacteria and Sabouraud's dextrose agar for fungi) seeded with the test organism. Each plate contained 15 mL of the agar medium, previously seeded with 0.2 mL of the broth culture of each organism pregrown for 18 hours. The plates were incubated at 37° C. for 48 h, and 72 h for fungi. The inhibition zones were measured in mm. Discs impregnated with DMSO were used as a control, and its inhibition zone was subtracted from the tested compound actual inhibition zone.

[8] = tested on: human prostate cancer cells (PC3); assay: cytotoxicity by SRB assay; assay type: cell-based; conditions: 0.01 μM to 100 μM for 72 h
Excerpt: (§2) The anticancer activity of the described synthesized compounds against highly aggressive androgen-independent metastatic human prostate cancer cells (PC3) and osteosarcoma (MG-63) cells. The human prostate cancer cells (PC3) and human osteosarcoma cells (MG-63) were obtained from Nawah Scientific Inc. (Mokatam, Cairo, Egypt) and cultured in DMEM (Dulbecco's modified eagle's medium), Gibco, USA, supplemented with fetal bovine serum (FBS) at a concentration of 10% and 100 U/mL of penicillin and streptomycin (PS). The Cells were incubated at 37° C. in a humidified environment that contained 5% CO2.
(§3) Cells were seeded in 96-well plates as aliquots of 100 μL cell suspension and incubated in a complete media for 24 h. afterward, cells were treated with 5-((2-isopropyl-5-methylphenoxy)methyl)-3-(naphthalen-2-yl)-1,2,4-oxadiazole at diverse concentrations ranging from 0.01 μM to 100 μM for 72 h. Then, cells were fixed at 4° C. for one hour with 150 μL of 10% trichloroacetic acid (TCA). […] Then, 150 μL of Tris pH 10.5 (10 mM) was added, and the absorbance was measured at 540 nm using a BMG LABTECH®-FLUOstar Omega microplate reader (Ortenberg, Germany). Half maximal inhibitory concentrations (IC50) values were calculated for each experiment using GraphPad Prism 6 software. […]
(§4) The inhibition was calculated using the following equation: Inhibition %=100−Average Viability

[9] = tested on: human osteosarcoma cells (MG-63); assay: cytotoxicity by SRB assay; assay type: cell-based; conditions: MG-63 cells, 0.01 μM to 100 μM for 72 h
Excerpt: as §2, §3, §4

[10] = A = concentration of comp. = 10,000 μL
[11] = B = concentration of comp. = 30,000 μL
[12] = C = concentration of comp. = 50,000 μL

Row | Compound | inhibition zone [1, 10] [mm] | inhibition zone [1, 11] [mm] | inhibition zone [1, 12] [mm] | inhibition zone [2, 10] [mm] | inhibition zone [2, 11] [mm] | inhibition zone [2, 12] [mm] | inhibition zone [3, 10] [mm] | inhibition zone [3, 11] [mm] | inhibition zone [3, 12] [mm] | inhibition zone [4, 10] [mm] | inhibition zone [4, 11] [mm] | inhibition zone [4, 12] [mm] | inhibition zone [5, 10] [mm] | inhibition zone [5, 11] [mm] | inhibition zone [5, 12] [mm] | inhibition zone [6, 10] [mm] | inhibition zone [6, 11] [mm] | inhibition zone [6, 12] [mm] | also measured
1 | O=C(O)c1cn(C2CC2)c2cc(N3CCNCC3)c(F)cc2c1=O [Cip., ciprofloxacin, reference compound] | 29 | 30 | 53 | 29 | 30 | 42 | 29 | 30 | 42 | 30 | 39 | 60 | 43 | 44 | 53 | 29 | 30 | 53 | –
2 | Cc1ccc(C(C)C)c(OCc2nc(-c3ccc4ccccc4c3)no2)c1 [compound 3, 5-((2-isopropyl-5-methylphenoxy)methyl)-3-(naphthalen-2-yl)-1,2,4-oxadiazole] | 26 | 29 | 45 | 20 | 25 | 33 | 24 | 27 | 38 | 28 | 34 | 49 | 17 | 24 | 32 | 25 | 29 | 40 | antimicrobial activity [7]: excellent antimicrobial activities; melting point: 187 to 188 °C; antiproliferative activity [8]: excellent antiproliferative activities; antiproliferative activity [9]: excellent antiproliferative activities
